Experimental data published in patent publication US20080311231A1, “Broad Spectrum Non-Traditional Preservative System” (priority 2005, published 2008).

Columns and labels:
Type in all cases: cell-based
[1] = system: P. aeruginosa; experiment: Method B, Symrise oil/water cream base (Example 5); conditions: 0.2% w/w in Symrise oil/water cream; 10^7 CFU/gm; 37° C., 24 hour
Method: (§1) Activity of lower concentration of Symdiol™ (0.2% w/w) with organic acids was measured. The cream base used in this study was supplied by Symrise Corporation. This base is an oil/water base.
(§2) Method of evaluation: Method B was used for this test. Method B: Same as described in Method A except a higher inoculum was used. A 100 μL inoculum containing 10^7 CFU of test organism was added to each 1 gm of cream and incubated at 37° C. Microbial growth measured as CFU was counted after 24 hour incubation at 37° C.

[2] = system: E. coli; experiment: Method B, Symrise oil/water cream base (Example 5); conditions: 0.2% w/w in Symrise oil/water cream; 10^7 CFU/gm; 37° C., 24 hour
Method: as §1, §2

[3] = system: S. aureus; experiment: Method B, Symrise oil/water cream base (Example 5); conditions: 0.2% w/w in Symrise oil/water cream; 10^7 CFU/gm; 37° C., 24 hour
Method: as §1, §2

[4] = system: C. albicans; experiment: Method B, Symrise oil/water cream base (Examples 5 and 6); conditions: for Colony counts (CFU/gm) C. albicans: 0.2% w/w in Symrise oil/water cream, 10^7 CFU/gm
Method: Activity of lower concentration of Symdiol™ (0.2% w/w) with organic acids was measured. The cream base used in this study was supplied by Symrise Corporation. This base is an oil/water base. […] Method of evaluation: Method B was used for this test. Method B: Same as described in Method A except a higher inoculum was used. […] Microbial growth measured as CFU was counted after 24 hour incubation at 37° C. The cream base used in this study was supplied by Symrise Corporation. This base is an oil/water base. […] Method of evaluation: Method B was used for this test with C. albicans as test organism.

[5] = system: P. aeruginosa; experiment: Efficacy of preservatives against higher concentrations of P. aeruginosa (Example 4); conditions: 10^7 cfu per gm cream, 37° C.
Method: (§3) Method of evaluation—Method A: 500 μl or 250 μl of each of the following preservatives was added to 49.5/49.75 gm of the cream base to obtain the desired concentrations for testing as in Table 3, and mixed well. 1.0 gm of this base+preservative formulation was dispensed into several culture tubes and each tube was inoculated with 10 μl of culture containing 10^5 cfu (colony forming units) of test organism. The tubes were incubated at room temperature. After 24 hours the tubes were removed and 9 ml of drug inactivating medium was added and mixed. After making another dilution (1:10) with drug inactivating medium, a 0.5 ml aliquot was subcultured on to a TSA plate. Colony counts were measured after 24 hours incubation at 37° C.
(§4) Evaluation of the synergistic activity of octanediol and AHA combinations against higher concentrations of P. aeruginosa. Since 0.5% Octanediol kills 100% of P. aeruginosa at a concentration of 10^5 cfu/gm, the test was repeated with this organism at 10^7 cfu/gm.
Method of evaluation: Same as described in Method A except a higher inoculum was used. A 100 μl inoculum containing 10^7 cfu of P. aeruginosa was added to each 1 gm of cream and incubated at 37° C.

[6] = system: C. albicans; experiment: Method C, oil/water base incubated at 30° C. (Examples 7 and 8); conditions: 10^7 cfu/gm, 24 hours
Method: Evaluation of the effect of various preservative compositions incorporated in an oil/water base against C. albicans (yeast) incubated at 30° C. Yeast and fungi grow optimally at 30° C. and therefore the efficacy of the preservative was evaluated at this temperature.
Method of evaluation: Method C: Same as Method B except that incubation was at 30° C. and subculturing is done on Sabouraud agar.
The following preservatives at 1.0% and 0.5% concentrations were added to the cream. C. albicais at 10^7 cfu/gm base was added to the base and incubated at 30° C. for 24 hours.
Efficacy of preservatives incorporated in the oil/water base and inoculated with the yeast C. albicans and fungus Aspergillus niger.
The cream base and the cream containing the preservatives were inoculated with 10^7 cfu of C. albicans/gm and 105 cfu of Aspergillus niger/gm; and incubated at 30° C. for 24 hours and 48 hours.
Method of Evaluation: Testing was done using Method C.

[7] = system: E. coli; experiment: Preservative activity in cream base, Method A (Example 3); conditions: 10^5 cfu inoculum, room temperature, 24 hours
Method: as §3
(§5) Result: Preservative activity of various creams utilizing a concentration of test organism of 10^5 cfu/gm and incubation at room temperature is shown in Table 4.

[8] = system: S. aureus; experiment: as above; conditions: 10^5 cfu inoculum, room temperature, 24 hours
Method: as §3, §5

[9] = system: C. albicans; experiment: as above; conditions: 10^5 cfu inoculum, room temperature, 24 hours
Method: as §3, §5

[10] = system: P. aeruginosa; experiment: Preservative activity in cream, Method A inoculum (text of Example 4); conditions: 0.5% Octanediol; organism at 10^5 cfu/gm (so in the source)
Method: as §3, §4

[11] = printed as 20% (single ingredient)

Row | SMILES | Colony counts (CFU/gm) P. aeruginosa [1] | Colony counts (CFU)/gm E. coli [2] | Colony counts (CFU)/gm S. aureus [3] | Colony counts (CFU/gm) C. albicans ([4]; 37° C., 24 hour) | Colony counts (CFU/gm) C. albicans ([4]; Table 7, Method B) | Colony counts (CFU/gm) P. aeruginosa ([5]; 0.2% w/w in cream) | C. albicans (CFU/gm cream) [6, 11] | Colony counts (CFU)/gm E. coli ([7]; 0.2% w/w in cream) | Colony counts (CFU)/gm S. aureus ([8]; 0.2% w/w in cream) | Colony counts (CFU/gm) C. albicans ([9]; 0.2% w/w in cream) | also measured
1 | O=C(O)CC(O)(CC(=O)O)C(=O)O [Citric acid] | 1.0 × 10^6 CFU/gm | 2.0 × 10^6 CFU/gm | 2.0 × 10^4 CFU/gm | 2.0 × 10^6 CFU/gm | 2.0 × 10^6 CFU/gm | 2.5 × 10^6 CFU/gm | 2.5 × 10^6 CFU/gm cream | 7.3 × 10^4 CFU/gm | 5.0 × 10^4 CFU/gm | 1.0 × 10^5 CFU/gm | activity of the combination against C. albicans in words (conclusion of Example 6) ([4]; with a lower concentration of octanediol (0.2% w/w)): enhanced activity
2 | CC(O)C(=O)O (stereo not drawn) [Lactic acid] | 2.0 × 10^6 CFU/gm | 1.2 × 10^6 CFU/gm | 6.0 × 10^4 CFU/gm | 2.0 × 10^6 CFU/gm | 2.0 × 10^6 CFU/gm | 2.0 × 10^6 CFU/gm | 5 × 10^6 CFU/gm cream | 2.3 × 10^4 CFU/gm | 3.0 × 10^3 CFU/gm | 1.5 × 10^4 CFU/gm | C. albicans (CFU/gm cream) ([6]; 0.12% (single ingredient)): 4.2 × 10^6 CFU/gm cream
3 | CCCCCCC(O)CO (stereo not drawn) |  |  |  |  | 1.0 × 10^5 CFU/gm |  |  |  |  |  | Colony counts (CFU/gm) P. aeruginosa ([5]; 0.5% w/w in cream): 1.6 × 10^3 CFU/gm; C. albicans (CFU/gm cream) ([6]; printed as 30% (single ingredient)): 1.4 × 10^5 CFU/gm cream; C. albicans (CFU/gm cream) ([6]; printed as 50% (single ingredient)): 0 CFU/gm cream; kills P. aeruginosa [10]: 100%; Colony counts (CFU)/gm E. coli ([7]; 0.3% w/w in cream): 5.4 × 10^4 CFU/gm; Colony counts (CFU)/gm E. coli ([7]; 0.5% w/w in cream): 0 CFU/gm; Colony counts (CFU)/gm S. aureus ([8]; 0.3% w/w in cream): 4.0 × 10^4 CFU/gm; Colony counts (CFU)/gm S. aureus ([8]; 0.5% w/w in cream): 1.5 × 10^3 CFU/gm; Colony counts (CFU/gm) C. albicans ([9]; 0.3% w/w in cream): 2.0 × 10^5 CFU/gm; Colony counts (CFU/gm) C. albicans ([9]; 0.5% w/w in cream): 5.2 × 10^2 CFU/gm
